Legend:
E. Coli E96 = test: Subcutaneous synergistic activity with amoxycillin, intraperitoneal mouse infection, E. Coli E96; format: in vivo
Excerpt: (§1) 9-N-Isobutylaminodeoxyclavulanic acid and 9-N-n-butylaminodeoxyclavulanic acid have been compared as synergists in vivo by the subcutaneous route against 2 strains of RTEM E. Coli in intraperitoneal mouse infections.
(§2) Comparative subcutaneous synergistic activity of 9-N-Isobutylaminodeoxyclavulanic acid and 9-N-n-butylaminodeoxyclavulanic acid with amoxycillin against mouse E. Coli infections

Aqueous solubility = format: physicochemical
E. coli JT 39 [1] = test: Effectiveness as synergist with amoxycillin, peritoneal infection due to E. coli JT 39 (Demonstration 2); format: in vivo; details: for ED50: Escherichia coli, JT39, sc, Test 1, alone, sub-cutaneous 1 and 5 hours post infection, read-out: CD50 (approximate), compound alone
E. Coli E124 = test: Subcutaneous synergistic activity with amoxycillin, intraperitoneal mouse infection, E. Coli E124; format: in vivo
Excerpt: as §1, §2

[2] = test system: staphylococcus aureus Russell; test: Effectiveness as anti-bacterial, mice infected with Staphylococcus aureus Russell (thigh lesion); format: in vivo; details: for Protection (%): subcutaneous at 1, 3 and 5 hours post infection
Description: Mice were infected with staphylococcus aureus Russell (thigh lesion with 0.2 ml im) and thereafter were dosed subcutaneously at 1, 3 and 5 hours post infection with a solution of the test compound.

E. coli JT 39 [3] = test: In-vivo synergistic effect with amoxycillin in mice infected by E. coli JT 39
Description: This microorganism produces considerable quantities of a β-lactamase which degrades amoxycillin so reducing its antibaceterial effectiveness in-vivo.
(Sodium amoxycillin was prepared by dissolving amoxycillin trihydrate in
sodium carbonate/sodium bicarbonate buffer).

[4] = test system: β-lactamase producing strains of gram-negative and gram-positive bacteria; test: Synergistic/antibacterial activity in-vivo, general statement; details: with penicillins and cephalosporins
in vivo = details: mouse, ip
LD50 in mice = details: mouse, in vivo, sc

CC(C)CNC/C=C1\O[C@@H]2CC(=O)N2[C@H]1C(=O)O [9-N-Isobutylaminodeoxyclavulanic acid]
relative synergist activity in vivo, 2 strains of RTEM E. Coli (E. Coli E96; subcutaneous route, intraperitoneal mouse infections, both strains (E96, E124)): more active then the n-butylamine
aqueous solubility (Aqueous solubility): increased aqueous solubility

CC1(C)S[C@@H]2[C@H](NC(=O)[C@H](N)c3ccc(O)cc3)C(=O)N2[C@H]1C(=O)O [Amoxycillin]
ED50 (E. coli JT 39 [1]): 1000 mg/kg
CD50 (approximate), compound alone (E. coli JT 39 [1]; Test 2, sub-cutaneous 1 and 5 hours post infection): 1000 mg/kg × 2
CD50 (approximate), compound alone (E. coli JT 39 [1]; Test 3, sub-cutaneous 1 and 5 hours post infection): 1000 mg/kg × 2
CD50, amoxycillin alone (E. Coli E96; E. Coli E96, P409, alone): > 1000 mg/kg × 2
ED50 (E. Coli E96; Escherichia coli, sc, E. Coli E96, P392, alone, read-out: CD50, amoxycillin alone): > 1000 mg/kg
CD50, amoxycillin alone (E. Coli E124; E. Coli E124, P412): > 1000 mg/kg × 2
ED50 (E. Coli E124; Escherichia coli, sc, E. Coli E124, P397, alone, read-out: CD50, amoxycillin alone): > 1000 mg/kg

Cc1nnc(SCC2=C(C(=O)O)N3C(=O)[C@@H](NC(=O)Cn4cnnn4)[C@H]3SC2)s1 [Cefazolin, reference compound]
ED50 (E. coli JT 39 [1]): 10.5 mg/kg
Protection (%) ([2]; 20 mg/kg): 39.0%
Protection (%) ([2]; 50 mg/kg): 71.2%

Cc1onc(-c2ccccc2Cl)c1C(=O)N[C@@H]1C(=O)N2[C@@H]1SC(C)(C)[C@@H]2C(=O)O [Cloxacillin, reference compound]
Protection (%) ([2]; 20 mg/kg): 61.6%
Protection (%) ([2]; 50 mg/kg): 91.7%

O=C(O)[C@H]1/C(=C/CNCc2ccccc2)O[C@@H]2CC(=O)N21 [Example 2, 9-N-Benzylaminodeoxyclavulanic acid]
protecting amoxycillin from the β-lactamase of E. coli JT 39 in-vivo (E. coli JT 39 [3]; administered orally): less effective per given weight than when administered sub-cutaneously
toxic effects during these tests (E. coli JT 39 [3]; in-vivo synergy tests, mice): not observed to produce toxic effects
Protection (%) ([2]; 5 mg/kg): 69.8%
Protection (%) ([2]; 10 mg/kg): 89.7%
Protection (%) ([2]; 20 mg/kg): 99.3%
effectiveness in treating certain infections due to Staphylococcus aureus Russell ([2]; compared with ampicillin, cloxacillin or cefazolin): more effective than ampicillin, cloxacillin or cefazolin
synergistic activity in-vivo [4]: particularly good synergistic activity in-vivo
LD50 (in vivo): > 1000 mg/kg
LD50 (LD50 in mice): > 500 mg/kg

COc1ccc(CNC/C=C2\O[C@@H]3CC(=O)N3[C@H]2C(=O)O)cc1 [Example 7, 9-N-(4-Methoxybenzyl)aminodeoxyclavulanic acid]
Protection (%) ([2]; 5 mg/kg): 28.0%
Protection (%) ([2]; 10 mg/kg): 80.8%
Protection (%) ([2]; 20 mg/kg): 87.6%

CC1(C)S[C@@H]2[C@H](NC(=O)[C@H](N)c3ccc(O)cc3)C(=O)N2[C@H]1C(=O)O [Sodium amoxycillin, reference compound]
ED50 (E. coli JT 39 [3]; Escherichia coli, JT39, sc, sub-cutaneous, mice, alone, read-out: CD50, sodium amoxycillin alone): 200 mg/kg

Reference: US4359473A, “α-Amino deoxy clavulanic acid antibacterial agents” (priority 1977, dated 1982)
